# Patent US9321767B2, “Azabenzimidazoles as respiratory syncytial virus antiviral agents” (JANSSEN SCIENCES IRELAND UC, priority 2010, dated 2016)
# Read-outs that look alike come from different tables or passages of the source.
# Key:
# [1] = test system: rgRSV224 virus; assay: microbe, parasite or virus in culture; format: cell-based, respiratory syncytial virus (RSV); conditions: for SI CC50/EC50: ratio of CC50 (HeLa cytotoxicity) to EC50 (RSV)
# Experimental: (§1) Black 96-well clear-bottom microtiter plates (Corning, Amsterdam, The Netherlands) were filled in duplicate using a customized robot system with serial 4-fold dilutions of compound in a final volume of 50 μl culture medium [RPMI medium without phenol red, 10% FBS, 0.04% gentamycin (50 mg/mL) and 0.5% DMSO]. Then, 100 μl of a HeLa cell suspension (5×10^4 cells/mL) in culture medium was added to each well followed by the addition of 50 μl rgRSV224 (MOI=0.02) virus in culture medium using a multidrop dispenser (Thermo Scientific, Erembodegem, Belgium). rgRSV224 virus is an engineered virus that includes an additional GFP gene (Hallak et al, 2000) and was in-licensed from the NIH (Bethesda, Md., USA). Medium, virus- and mock-infected controls were included in each test. Cells were incubated at 37° C. in a 5% CO2 atmosphere. Three days post-virus exposure, viral replication was quantified by measuring GFP expression in the cells by a MSM laser microscope (Tibotec, Beerse, Belgium). The EC50 was defined as the 50% inhibitory concentration for GFP expression. In parallel, compounds were incubated for three days in a set of white 96-well microtitier plates (Corning) and the cytotoxicity of compounds in HeLa cells was determined by measuring the ATP content of the cells using the ATPlite kit (PerkinElmer, Zaventem, Belgium) according to the manufacturer's instructions. The CC50 was defined as the 50% concentration for cytotoxicity.
# [2] = test system: HeLa cells; assay: Cytotoxicity in HeLa cells, ATP content (ATPlite kit); format: cell-based; conditions: HeLa cells, three days incubation, ATP content
# Experimental: as §1
# [3] = human respiratory syncytial virus, HeLa, 72 h, read-out: RSV-wt_EC50
# [4] = human respiratory syncytial virus, HeLa, 72 h, read-out: WT activity EC50
# [5] = rgRSV224 in HeLa cells, three days post-virus exposure, GFP expression, read-out: WT activity EC50
Compound,"EC50 [1, 3] [nM]",TOX-HELA_EC50 [2] [µM],"EC50 [1, 4] [nM]",SI CC50/EC50 [1],"EC50 [1, 5] [nM]"
"CC(C)CCn1c(Cn2c(=O)n(C3CC3)c3ccncc32)nc2nc(Cl)ccc21 [Compound 1, 3-((5-chloro-1-isopentyl-1H-imidazo[4,5-b]pyridin-2-yl)methyl)-1-cyclopropyl-1H-imidazo[4,5-c]pyridin-2(3H)-one]",0.365,>9.836,,,
"CC(C)CCn1c(Cn2c(=O)n(C3COC3)c3ccncc32)nc2nc(Cl)ccc21 [Compound 2, 3-((5-chloro-1-isopentyl-1H-imidazo[4,5-b]pyridin-2-yl)methyl)-1-(oxetan-3-yl)-1H-imidazo[4,5-c]pyridin-2(3H)-one]",1.58,>9.836,,,
"CC(C)(C)C(=O)OCCCCn1c(Cn2c(=O)n(C3CC3)c3ccncc32)nc2nc(Cl)ccc21 [Compound 3, 4-(5-chloro-2-((1-cyclopropyl-2-oxo-1H-imidazo[4,5-c]pyridin-3(2H)-yl)methyl)-1H-imidazo[4,5-b]pyridin-1yl)butyl pivalate]",3.29,>9.836,,,
"CC(C)CCn1c(Cn2c(=O)n(C3CC3)c3ccccc32)nc2ncccc21 [Compound 4, 1-cyclopropyl-3-((1-isopentyl-1H-imidazo[4,5-b]pyridin-2-yl)methyl)-1H-benzo[d]imidazol-2(3H)-one]",7.08,>9.836,,,
"CC(C)CCn1c(Cn2c(=O)n(C3CC3)c3ccncc32)nc2ncccc21 [Compound 5, 1-cyclopropyl-3-((1-isopentyl-1H-imidazo[4,5-b]pyridin-2-yl)methyl)-1H-imidazo[4,5-c]pyridin-2(3H)-one]",8.67,>98.3603,,,
"CC(C)CCn1c(Cn2c(=O)n(C3CC3)c3ccccc32)nc2cc(Br)cnc21 [Compound 30, 1-((6-bromo-3-isopentyl-3H-imidazo[4,5-b]pyridin-2-yl)methyl)-3-cyclopropyl-1H-benzo[d]imidazol-2(3H)-one]",,>9.84,,,
"O=c1n(Cc2nc3ncccc3n2CCCC(F)F)c2cnccc2n1C1CC1 [Compound 43, 1-cyclopropyl-3-((1-(4,4-difluorobutyl)-1H-imidazo[4,5-b]pyridin-2-yl)methyl)-1H-imidazo[4,5-c]pyridin-2(3H)-one]",,,7.91,7161,
N#CCCCn1c(Cn2c(=O)n(C3CC3)c3ccncc32)nc2ccc(Cl)nc21 [Compound 49],,,1450,>68,
COC(=O)c1nccc2c1n(Cc1nc3nc(Cl)ccc3n1CCCCO)c(=O)n2C1CC1 [Compound 62],,,294,>339,
CC(=O)OCCCCn1c(Cn2c(=O)n(C3CC3)c3ccncc32)nc2nc(Cl)ccc21 [Compound 64],,,,>18058,5.54
CC(C)C(=O)OCCCCn1c(Cn2c(=O)n(C3CC3)c3ccncc32)nc2nc(Cl)ccc21 [Compound 65],,,,>18110,5.52
O=C1c2ccccc2C(=O)N1CCCCn1c(Cn2c(=O)n(C3CC3)c3ccncc32)nc2nc(Cl)ccc21 [Compound 66],,,,>16939,5.9
"CC(O)CCCn1c(Cn2c(=O)n(C3CC3)c3ccncc32)nc2nc(Cl)ccc21 (centres unmarked) [Compound 67, 3-{[5-chloro-1-(4-hydroxypentyl)-1H-imidazo[4,5-b]pyridin-2-yl]methyl}-1-cyclopropyl-1,3-dihydro-2H-imidazo[4,5-c]pyridin-2-one]",,,7.91,>12643,
COC(=O)NCCCCn1c(Cn2c(=O)n(C3CC3)c3ccncc32)nc2nc(Cl)ccc21 [Compound 68],,,,>12208,8.19
O=c1n(Cc2nc3nc(F)ccc3n2CCCC(F)(F)F)c2cnccc2n1C1CC1 [Compound 69],,,,>1318,75.8
O=c1n(Cc2nc3ncccc3n2CCCOC(F)(F)F)c2cnccc2n1C1CC1 [Compound 70],,,,>9116,11
O=c1n(Cc2nc3nc(Cl)ccc3n2CCCC(F)(F)F)c2cnccc2n1CC(F)(F)F [Compound 71],,,,>108383,0.923
O=c1n(Cc2nc3ncccc3n2CCCC(F)(F)F)c2cnccc2n1CC(F)(F)F [Compound 72],,,,>2766,3.61
NC(=O)NCCCCn1c(Cn2c(=O)n(C3CC3)c3ccncc32)nc2nc(Cl)ccc21 [Compound 74],,,,>1997,5.01
"CC(C)(O)CCCn1c(Cn2c(=O)n(C3CC3)c3ccncc32)nc2nc(Cl)ccc21 [Compound 75, 3-((5-chloro-1-(4-hydroxy-4-methylpentyl)-1H-imidazo[4,5-b]pyridin-2-yl)methyl)-1-cyclopropyl-1H-imidazo[4,5-c]pyridin-2 (3H)-one]",,,1.58,>63325,

Compound,"EC50 [1, 3] [nM]",TOX-HELA_EC50 [2] [µM],"EC50 [1, 4] [nM]",SI CC50/EC50 [1],"EC50 [1, 5] [nM]"
O=C(NCCCCn1c(Cn2c(=O)n(C3CC3)c3ccncc32)nc2nc(Cl)ccc21)OCCF [Compound 76],,,,>24518,4.08
O=C(NC1CCCC1)OCCCCn1c(Cn2c(=O)n(C3CC3)c3ccncc32)nc2nc(Cl)ccc21 [Compound 78],,,,14406,5.73
COc1ccc(NC(=O)OCCCCn2c(Cn3c(=O)n(C4CC4)c4ccncc43)nc3nc(Cl)ccc32)cc1 [Compound 79],,,,1711,23.3
CC1=C(NCCCCn2c(Cn3c(=O)n(C4CC4)c4ccncc43)nc3nc(Cl)ccc32)c2ccccc2S1(=O)=O [Compound 80],,,,>9628,10.4
CC(C)OC(=O)NCCCCn1c(Cn2c(=O)n(C3CC3)c3ccncc32)nc2ncccc21 [Compound 81],,,,>1380,72.4
O=C(NCCCCn1c(Cn2c(=O)n(C3CC3)c3ccncc32)nc2nc(Cl)ccc21)OC1CCCC1 [Compound 82],,,,5649,17.1
O=C(Nc1ccc(F)cc1C(F)(F)F)OCCCCn1c(Cn2c(=O)n(C3CC3)c3ccncc32)nc2nc(Cl)ccc21 [Compound 83],,,,4731,14
O=C(Nc1ccc(F)c(Cl)c1)OCCCCn1c(Cn2c(=O)n(C3CC3)c3ccncc32)nc2nc(Cl)ccc21 [Compound 84],,,,354,18.9
O=c1n(Cc2nc3ncccc3n2CCCCF)c2cnccc2n1CC(F)(F)F [Compound 85],,,,1436,8.54
O=C(Nc1ccc(Cl)cc1)OCCCCn1c(Cn2c(=O)n(C3CC3)c3ccncc32)nc2nc(Cl)ccc21 [Compound 86],,,,263,36.8
O=c1n(Cc2nc3nc(Cl)ccc3n2CCCC(F)(F)F)c2cc(F)ccc2n1CC(F)(F)F [Compound 87],,,,>49069,2.04
CC(C)(CO)CCn1c(Cn2c(=O)n(C3CC3)c3ccncc32)nc2nc(Cl)ccc21 [Compound 88],,,,>4517,11.1
O=c1n(Cc2nc3ncccc3n2CCCC(F)(F)F)c2cc(F)ccc2n1CC(F)(F)F [Compound 89],,,,>2037,49.1
CC(C)CCn1c(Cn2c(=O)n(CC(F)(F)F)c3ccncc32)nc2nc(Cl)ccc21 [Compound 90],,,,36156,2.6
O=c1n(Cc2nc3ncccc3n2CCCc2ccccc2)c2cnccc2n1C1CC1 [Compound 91],,,,>8223,12.2
CC(C)CCn1c(Cn2c(=O)n(CC(F)(F)F)c3ccc(F)cc32)nc2nc(Cl)ccc21 [Compound 92],,,,13572,6.72
O=c1n(Cc2nc3ncccc3n2CCCc2ccccc2)c2cc(F)ccc2n1C1CC1 [Compound 93],,,,>3176,31.5
O=c1n(Cc2nc3ncccc3n2CCCc2ccccn2)c2cnccc2n1C1CC1 [Compound 94],,,,>748,126
CC(C)CCn1c(Cn2c(=O)n(C3CC3)c3ccncc32)nc2nc(C(=N)N)ccc21 [Compound 105],,,0.316,>330179,
